Reference: PubChem BioAssay (NCI)
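Five compound concentrations were applied to cells in 96-well plates for 48 hours; endpoints were derived by simple linear interpolation of the resulting dose-response curve. GI50: concentration for 50% inhibition of growth. TGI denotes the concentration required for complete inhibition of growth.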

System: MCF7 breast
Experiment: NCI anticancer screen, dose series, 48 h

SMILES | GI50 | TGI
CN(C)CCN1C(=O)c2ccc3c4c(ccc(c24)C1=O)C(=O)N(CCN=C=S)C3=O | 0.0257 µM | 0.129 µM
COc1ccc(/C=C/c2cc(OC)cc(=O)o2)cc1 | – | > 100 µM
O=C(/C=C\c1ccc(NCc2ccc(C(=O)O)cc2)cc1)CCl | 4.26 µM | 17.7 µM
O=C1CSC(c2ccc(Cl)cc2Cl)N1c1ccc(F)cc1 (configuration not stated) | 14 µM | 27 µM
COc1cccc(C#Cc2ccccc2C#CCCCCO)c1 | 16.1 µM | 41.1 µM
CC1=C[C@H]2c3c(c(O)c(O)c4oc(-c5ccccc5)cc(=O)c34)[C@H](c3cc(O)c(O)c4oc(-c5ccccc5)cc(=O)c34)[C@H]2C(C)(C)C1 | 0.597 µM | 9.16 µM
COc1cccc2c(=O)c3c(sc12)c(N1CCNCC1)nc1ccccc13 | 1.57 µM | 3.28 µM
COc1c(CCl)cc(-c2cc(=O)c3ccccc3s2)cc1CCl | – | > 22.7 µM
COc1cc2[nH]c(C(=O)c3cc(OC)c(OC)c(OC)c3)c(N)c2cc1C#CC1CC1 | 1.85 µM | > 100 µM
COc1ccc(/C=C/C(=O)C(CC2CCC2)C(=O)/C=C/c2ccc(OC)c(OC)c2)cc1OC | 0.6 µM | 40.5 µM
O=C1CC2c3ccccc3CCC2c2ccccc21 (configuration not stated) | – | > 100 µM
CN(CCC#N)c1ccc(/C=C(\C#N)c2ccc(Br)cc2)cc1 | 4.05 µM | > 100 µM
COc1cc(NC(C)CCCN)c2nccc(C)c2c1 (configuration not stated) | – | 33.2 µM
CCCCCCCCCCCCCCCCCCOc1ccccc1CC(=O)OCC[N+]1(C)CCCC1 | 2.11 µM | 4.76 µM

System: MOLT-4 leukemia
Experiment: NCI anticancer screen, dose series, 48 h

SMILES | TGI | GI50
Cn1c2ccccc2c(=O)c2ccc(Cl)cc21 | > 10 µM | –
O=S(=O)(Nc1cc(Sc2cccc3cccnc23)c(O)c2ccccc12)c1ccccc1 | 5.53 µM | 0.546 µM
CN(C)C(=O)[C@H](O)[C@H](Cc1ccccc1)NC(=O)c1cc2cc(Cl)ccc2[nH]1 | 79.4 µM | 21 µM
CC(C)(C[C@H]1CN(S(=O)(=O)c2cccc(C(F)(F)F)c2)c2cc(-c3cc(F)cc(OC(F)F)c3)ccc2O1)C(=O)O | 29.7 µM | 5.88 µM
Cc1ccc(-c2nc3ccc(Cl)cc3c(=O)n2N2C(=O)CSC2c2ccccc2Cl)cc1 (configuration not stated) | > 100 µM | > 100 µM
O=C(O)C1C(Br)(c2ccccc2)C1(Br)c1ccccc1 (configuration not stated) | > 100 µM | –
C#Cc1c(I)n(C2OC(CO[Si](C)(C)C(C)(C)C)C3OC(C)(C)OC32)c(=O)[nH]c1=O (configuration not stated) | 6.69 µM | 2.17 µM
CCSc1nc(SCC)c2cn[nH]c2n1 | > 100 µM | > 100 µM
ClCC[N+]12CC[N+](CCCl)(CC1)C2 | > 100 µM | –
COc1ccc(CCN2COc3c([C@@H](C)CCC=C(C)C)ccc(C)c3C2)cc1OC | > 100 µM | 3.69 µM
COc1cc(C(=O)c2cc(C)c3[nH]c4ccc(C)cc4c3c2C)cc(OC)c1OC | > 100 µM | < 0.01 µM
COc1cc(/C=C/c2cc(/C=C/c3ccc(O)c(OC)c3)n(C(=O)Nc3ccc(C)cc3C)n2)ccc1O | 1.22 µM | 0.281 µM
Cc1ccc2[nH]c(O)c(N=Nc3ccc(S(N)(=O)=O)cc3)c2c1 | > 25 µM | > 21.5 µM
C=C1CCC(CC[C@@H]2CC[C@]3(OC2)O[C@@]2(O)CC[C@]3(C)OC2(C)C)C(C)(C)[C@H]1C/C=C1/C(=O)OC[C@@H]1O (some centres not stated) | 5.45 µM | –
C[C@]12CC[C@@H]3c4cc(OCC(F)(F)F)c(O)cc4/C(=N/O)C[C@H]3[C@@H]1CC[C@@H]2O | – | 0.0575 µM
Cn1c(=O)c(Cc2ccccc2F)cc2cnc(NC3CCOCC3)nc21 | > 25 µM | > 25 µM

SMILES | TGI | GI50
COc1cc(/C=C/c2ccc(OC)c(OC)c2)cc(OC)c1 | > 100 µM | –
CC1(C)[C@@H](OC(N)=O)[C@H]2O[C@H]2[C@]2(C=O)[C@H]3CC[C@]4(C)[C@@H](c5ccc(=O)oc5)[C@@H](Cl)C[C@]4(O)C3=CC[C@@H]12 | 0.0112 µM | 0.00365 µM
CCCCON(OC(=O)c1ccc2ccc3cccc4ccc1c2c34)C(C)=O | 37.2 µM | 17.4 µM
Cc1[nH]c2ccccc2c(=O)c1CC=C(Cl)Cl | > 100 µM | 82.3 µM
Clc1ccc(C=Nc2ccc3c(c2)Cc2ccccc2-3)c(Cl)c1 | > 100 µM | –
COc1ccc(/C=C/c2cc(OC)cc(=O)o2)cc1 | > 100 µM | –
O=C(/C=C\c1ccc(NCc2ccc(C(=O)O)cc2)cc1)CCl | 26.4 µM | 4.45 µM
O=C1CSC(c2ccc(Cl)cc2Cl)N1c1ccc(F)cc1 (configuration not stated) | 43.4 µM | 18.5 µM
COc1cccc(C#Cc2ccccc2C#CCCCCO)c1 | 53.1 µM | 3.82 µM
CC1=C[C@H]2c3c(c(O)c(O)c4oc(-c5ccccc5)cc(=O)c34)[C@H](c3cc(O)c(O)c4oc(-c5ccccc5)cc(=O)c34)[C@H]2C(C)(C)C1 | > 75 µM | 0.988 µM
COc1cc2[nH]c(C(=O)c3cc(OC)c(OC)c(OC)c3)c(N)c2cc1C#CC1CC1 | > 100 µM | 4.32 µM
COc1ccc(/C=C/C(=O)C(CC2CCC2)C(=O)/C=C/c2ccc(OC)c(OC)c2)cc1OC | 8.95 µM | 2.82 µM
CC(=O)N[C@H]1CSSC[C@@H](C(N)=O)NC(=O)[C@H](C(C)C)NC(=O)[C@H](C)NC(=O)[C@H](Cc2cnc[nH]2)NC1=O | > 100 µM | > 100 µM
O=C1CC2c3ccccc3CCC2c2ccccc21 (configuration not stated) | > 100 µM | –
CCCCCCCCCCCCCCCCCCOc1ccccc1CC(=O)OCC[N+]1(C)CCCC1 | 4.95 µM | 2.12 µM
CC(=O)C(=CN1CCN(C(=O)c2ccco2)C1=S)C(C)=O | > 100 µM | 8.2 µM

System: NCI-H522 lung
Experiment: NCI anticancer screen, dose series, 48 h

SMILES | GI50 | TGI
Nc1ccc(-c2nc3ccc(Cc4ccc5nc(-c6ccc(N)cc6)[nH]c5c4)cc3[nH]2)cc1 | 1.97 µM | 4.87 µM
O=S(=O)(Nc1cc(Sc2cccc3cccnc23)c(O)c2ccccc12)c1ccccc1 | 2.12 µM | 8.17 µM
CN(C)C(=O)[C@H](O)[C@H](Cc1ccccc1)NC(=O)c1cc2cc(Cl)ccc2[nH]1 | 21.5 µM | 68.7 µM
CC(C)(C[C@H]1CN(S(=O)(=O)c2cccc(C(F)(F)F)c2)c2cc(-c3cc(F)cc(OC(F)F)c3)ccc2O1)C(=O)O | 2.5 µM | 10.7 µM
O=C(O)C1C(Br)(c2ccccc2)C1(Br)c1ccccc1 (configuration not stated) | – | 43.9 µM
C#Cc1c(I)n(C2OC(CO[Si](C)(C)C(C)(C)C)C3OC(C)(C)OC32)c(=O)[nH]c1=O (configuration not stated) | 1.72 µM | 3.52 µM
CCSc1nc(SCC)c2cn[nH]c2n1 | 35.7 µM | > 100 µM
ClCC[N+]12CC[N+](CCCl)(CC1)C2 | – | > 100 µM
COc1cc(C(=O)c2cc(C)c3[nH]c4ccc(C)cc4c3c2C)cc(OC)c1OC | < 0.01 µM | –
Cc1ccc2[nH]c(O)c(N=Nc3ccc(S(N)(=O)=O)cc3)c2c1 | 8.94 µM | > 25 µM
C=C1CCC(CC[C@@H]2CC[C@]3(OC2)O[C@@]2(O)CC[C@]3(C)OC2(C)C)C(C)(C)[C@H]1C/C=C1/C(=O)OC[C@@H]1O (some centres not stated) | – | 3.5 µM
C[C@]12CC[C@@H]3c4cc(OCC(F)(F)F)c(O)cc4/C(=N/O)C[C@H]3[C@@H]1CC[C@@H]2O | 0.0507 µM | 25.6 µM
Cn1c(=O)c(Cc2ccccc2F)cc2cnc(NC3CCOCC3)nc21 | > 25 µM | > 25 µM
COc1cc(/C=C/c2ccc(OC)c(OC)c2)cc(OC)c1 | – | 66.4 µM
